Experimental data reported in BigSolDB 2.1.

O=C1NC(=O)C2C3C=CC(C3)C12 (stereo not drawn)
solubility (mole fraction)
Conditions	278.15 K	283.15 K	288.15 K	293.15 K	298.15 K	303.15 K	308.15 K	313.15 K	318.15 K	323.15 K
in 1,4-dioxane	–	–	0.0363	0.0402	0.0495	0.0576	0.0649	0.0738	0.0843	0.0962
in 2-ethoxyethanol	0.019	0.0224	0.0255	0.0295	0.0336	0.0384	0.0442	0.0481	0.0551	0.0627
in DMF	0.0637	0.0717	0.081	0.0915	0.107	0.116	0.129	0.145	0.159	0.177
in acetone	0.0128	0.0146	0.0171	0.0196	0.0225	0.0255	0.029	0.0328	0.0369	0.0414
in ethanol	0.00441	0.00512	0.00642	0.00789	0.00949	0.0115	0.0138	0.0165	0.0195	0.0233
in ethyl acetate	0.00821	0.00971	0.0112	0.0128	0.0146	0.0171	0.0195	0.0223	0.0255	0.029
in isopropyl acetate	0.0046	0.00565	0.00672	0.00781	0.00903	0.0105	0.0124	0.0143	0.0164	0.019
in methanol	0.00626	0.00766	0.00855	0.0104	0.0127	0.0157	0.0182	0.0219	0.026	0.0308
in methyl acetate	0.0113	0.0135	0.0159	0.0187	0.0223	0.0259	0.0303	0.0352	0.041	0.0474
in n-butyl acetate	0.00431	0.00523	0.00617	0.00718	0.00869	0.0103	0.0117	0.0135	0.0156	0.0178
in n-propyl acetate	0.00537	0.00631	0.00782	0.00907	0.0106	0.0124	0.0145	0.0168	0.0193	0.0221
